Read-outs that look alike come from different tables or passages of the source.
Legend:
A375 cells = test: Cell viability experiment (Cell Titer-Glo), A375; assay type: cell-based; details: Homo sapiens, A-375, 72 h
Description: (§1) Biological Test Method 2: Cell Viability Experiment
(§2) HT29 and A375 cells were plated in a 96-well cell culture plate at a density of 40,000 cells/well and 20,000 cells/well respectively, and the cells were cultured overnight. The compounds were serially diluted in a gradient of 1:3, the dilutions were added to the cell culture medium, and incubated with the cells in a 37° C. incubator for 3 days. The 96-well cell culture plate was taken from the incubator and equilibrated at room temperature for 30 minutes, then Cell Titer-Glo reagent (Promega Cat #G7573) was added at a ratio of 1:2, and the mixture was mixed thoroughly on a shaker for 2 minutes to promote cell lysis. The cell culture plate was incubated at room temperature for 10 minutes and then read on an Envision microplate reader (PerkinElmer). XLfit5 software was used for data analysis and mapping.

[1] = test system: HT-29 cell subcutaneous xenograft tumor; test: In vivo pharmacodynamics study on HT-29 cell subcutaneous xenograft tumor model; parameters: species or system BALB/c nude mouse; details: QD
Description: Biological Test Method 3: In Vivo Pharmacodynamics Study on HT-29 Cell Subcutaneous Xenograft Tumor Model in BALB/c Nude Mouse
Human colon cancer HT-29 cells (ATCC-HTB-38) were cultured in monolayer in vitro, with McCoy's 5a medium (Gibco, 1835937) supplemented with 10% fetal bovine serum, 100 U/mL penicillin and 100 μg/mL streptomycin, at 37° C. under 5% CO2. The cells were conventionally digested with trypsin-EDTA and passaged twice a week. When the cell saturation was 80%-90%, the cells were collected, counted and inoculated. 0.1 mL (5×10^6) of HT-29 cells was subcutaneously inoculated into the right back of each nude mouse. […] The diameter of the tumor was measured twice a week with a vernier caliper. The tumor volume is calculated by the formula: V=0.5a×b^2, wherein a and b represent the length and width respectively. The antitumor activity of the compounds was evaluated by TGI (%), which reflects the tumor growth inhibition rate. Calculation of TGI (%): TGI (%)=[(1−(average tumor volume at the end of administration in a treatment group−average tumor volume at the start of treatment in this treatment group))/(average tumor volume at the end of treatment in the solvent control group−average tumor volume at the start of treatment in the solvent control group)]×100%.

HT29 cells = test: Cell viability experiment (Cell Titer-Glo), HT29; assay type: cell-based, human; details: Homo sapiens, HT-29, 72 h
Description: as §1, §2

[2] = Pharmacokinetics study of the compounds in C57BL/6 mice; assay type: in vivo; details: male, mouse, single intravenous and oral dose, plasma; for bioavailability: read-out: Bioavailability F; for AUC: read-out: Comcentration quadrature AUC; for half-life: read-out: Half life T1/2 (converted)
Description: Biological Test Method 4: Pharmacokinetics Study of the Compounds in C57BL/6 Mice Experimental Materials: C57BL/6 mice (male, 18-22 g, 7-9 weeks old, Shanghai Lingchang) Experimental Procedure: The pharmacokinetic characteristics of the compounds in rodents were determined after intravenous and oral administration of the compounds by standard protocols. In the experiment, candidate compounds were formulated into clear solutions, and intravenously and orally administrated to […] in a single dose. The menstruum for intravenous and oral administration was DMSO, PEG and water at a certain ratio or Solutol, HPMC and SLS aqueous solutions at a certain ratio. The whole blood samples within 24 hours were collected, centrifuged at 3,000 rpm for 15 minutes, and the supernatants were isolated to obtain plasma samples. An acetonitrile solution containing an internal standard with a volume of 4 times as the plasma sample volume was added to precipitate the protein. After centrifugation, the supernatant was collected and an equal volume of water was added. After centrifugation, the supernatant was collected and injected to quantitatively analyze the blood drug concentration by LC-MS/MS analysis method, and the pharmacokinetic parameters were calculated, e.g., peak concentration, peak time, clearance, half-life, area under the drug concentration-time curve, bioavailability, etc.

activated MEK1 = biological target: T1, activated MEK1 (Homo sapiens, UniProt Q02750); test: MEK Lance Ultra experiment; assay type: biochemical; details: 0.07 nM activated MEK1, 2 nM non-activated ERK, 50 μM ATP; read-out: MEK potency IC50
T1 construct: purchased Millipore 14-429
Description: Biological Test Method 1: MEK Lance Ultra Experiment Compounds were serially diluted three-fold to 10 concentrations, two duplicates were set. Final test concentrations of the compounds ranged from 10 μM to 0.51 nM. 0.07 nM activated MEK1 (Millipore #14-429) and 2 nM non-activated ERK (Millipore #14-515) were mixed with the compounds or DMSO, the mixture was incubated at 23° C. for 30 minutes. Then 50 nM ULight labeled MBP (PerkinElmer #TRF0109-M) and 50 μM ATP (Invitrogen #PV3227) were added to initiate the reaction, and the mixture was incubated at 23° C. for 90 minutes. After the reaction was stopped by adding EDTA at a final concentration of 15 mM, 2 nM Eu-labeled anti-phosphorylated antibody (PerkinElmer #TRF0201-M) was added and incubated for 1 hour. The fluorescence signal data (excitation band: 320 nm; emission band: 665 nM/615 nM) was determined by an Envision microplate reader (PerkinElmer). XLfit5 software was used for data analysis and mapping.

[3] = A375 cells, 3 days incubation, read-out: A375 IC50
[4] = HT29 cells, 3 days incubation, read-out: HT29 IC50

T1 sequence (Q02750 whole entry): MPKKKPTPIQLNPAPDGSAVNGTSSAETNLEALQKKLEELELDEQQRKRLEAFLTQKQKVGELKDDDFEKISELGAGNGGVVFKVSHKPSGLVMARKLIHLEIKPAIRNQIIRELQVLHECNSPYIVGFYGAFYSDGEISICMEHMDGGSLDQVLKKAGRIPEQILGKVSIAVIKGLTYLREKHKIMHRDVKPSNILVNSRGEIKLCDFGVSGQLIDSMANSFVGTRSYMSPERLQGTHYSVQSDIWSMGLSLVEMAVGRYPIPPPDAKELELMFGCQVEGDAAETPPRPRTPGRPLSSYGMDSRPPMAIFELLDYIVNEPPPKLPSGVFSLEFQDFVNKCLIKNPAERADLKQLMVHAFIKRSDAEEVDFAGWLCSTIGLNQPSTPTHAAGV

Compound	IC50 (A375 cells; [3]) [µM]	IC50 (HT29 cells; [4]) [µM]	IC50 (activated MEK1) [µM]	further results
CC(=O)Nc1cccc(-c2c(C)n(C3CC3)c(=O)c3c(Nc4ccc(I)cc4F)c(C)c(=O)oc23)c1 [WX034]	0.00148	0.00639	0.0278	TGI ([1]; 3 mpk, 21 days): 90.6%; clearance [2]: 1.84 mL/min/kg; bioavailability [2]: 68.7%; AUC [2]: 30.5 µM·h; half-life [2]: 5.41 h
Cc1c(NS(C)(=O)=O)cccc1-c1c(C)n(C2CC2)c(=O)c2c(Nc3ccc(I)cc3F)c(C)c(=O)oc12 [WX086]	–	–	0.0296	IC50 (A375 cells; read-out: A375 IC50, A375 cells, 3 days incubation): 0.0004 µM; TGI ([1]; 0.5 mpk (0-11 D): 0.35 mpk (12-21 D), 21 days): 83.1%; IC50 (HT29 cells; read-out: HT29 IC50, HT29 cells, 3 days incubation): 0.00062 µM; clearance [2]: 2.2 mL/min/kg; bioavailability [2]: 76.8%; AUC [2]: 23.4 µM·h; half-life [2]: 7 h
Cc1c(Nc2ccc(I)cc2F)c2c(=O)n(C3CC3)c(C)c(-c3cccc(CS(C)(=O)=O)c3)c2oc1=O [WX071]	0.00299	0.00405	0.066	TGI ([1]; 0.5 mpk, 21 days): 91%; clearance [2]: 0.912 mL/min/kg; bioavailability [2]: 83%; AUC [2]: 58.2 µM·h; half-life [2]: 5.28 h
Cc1c(Nc2ccc(I)cc2F)c2c(=O)n(C3CC3)c(C)c(Cc3cccc(N)c3)c2oc1=O [WX101]	0.00176	0.0126	0.0174	–
Cc1c(NS(C)(=O)=O)cccc1-c1c(C)n(C2CC2)c(=O)c2c(Nc3ccc(I)cc3F)c(C)c(=O)oc12 (single isomer, unassigned) [WX113]	0.00037	0.00082	0.00561	TGI ([1]; 0.2 mpk, 25 days (5 days administration, and 2 days break)): 82.8%; clearance [2]: 2.92 mL/min/kg; bioavailability [2]: 73.1%; AUC [2]: 17.6 µM·h; half-life [2]: 4.64 h
COC(OC)C(=O)Nc1cccc(-c2c(C)n(C3CC3)c(=O)c3c(Nc4ccc(I)cc4F)c(C)c(=O)oc23)c1 [WX081]	0.00526	0.013	0.105	–
CCS(=O)(=O)Nc1cccc(-c2c(C)n(C3CC3)c(=O)c3c(Nc4ccc(I)cc4F)c(C)c(=O)oc23)c1 [WX082]	0.00175	0.00393	0.0974	–
Cc1c(Nc2ccc(I)cc2F)c2c(=O)n(C3CC3)c(C)c(-c3ccnc(N)c3)c2oc1=O [WX079]	0.00323	0.00552	0.0353	–
CNC(=O)Nc1cccc(-c2c(C)n(C3CC3)c(=O)c3c(Nc4ccc(I)cc4F)c(C)c(=O)oc23)c1 [WX099]	0.00472	0.0124	0.0491	–
Cc1c(Nc2ccc(I)cc2F)c2c(=O)n(C3CC3)c(C)c(-c3cccc(NCCO)c3)c2oc1=O [WX093]	0.0088	0.0234	0.11	–

Continued by falling IC50 (A375 cells; [3]), values first:

IC50 (A375 cells; [3]) [µM]	IC50 (HT29 cells; [4]) [µM]	IC50 (activated MEK1) [µM]	Compound	further results
0.643	0.978	0.0711	CC(=O)Nc1cccc(-c2c(C)n(CCN(C)S(C)(=O)=O)c(=O)c3c(Nc4ccc(I)cc4F)c(C)c(=O)oc23)c1 [WX055]	–
0.442	0.446	0.0575	COCCn1c(C)c(-c2cccc(NC(C)=O)c2)c2oc(=O)c(C)c(Nc3ccc(I)cc3F)c2c1=O [WX061]	–
0.0293	0.0907	0.119	Cc1c(CS(C)(=O)=O)cccc1-c1c(C)n(C)c(=O)c2c(Nc3ccc(I)cc3F)c(C)c(=O)oc12 [WX109]	–
0.0104	0.0281	0.119	Cc1c(Nc2ccc(I)cc2F)c2c(=O)n(C3CC3)c(C)c(-c3cccc(NC(=O)NC(C)(C)C)c3)c2oc1=O [WX104]	–
0.00658	0.0203	0.0489	Cc1c(Nc2ccc(I)cc2F)c2c(=O)n(C3CC3)c(C)c(-c3cccc(NC(N)=O)c3)c2oc1=O [WX103]	–
0.00458	0.00744	0.0773	Cc1c(Nc2ccc(I)cc2F)c2c(=O)n(C3CC3)c(C)c(-c3cccc(NS(C)(=O)=O)c3)c2oc1=O [WX066]	TGI ([1]; 0.5 mpk, 21 days): 89%; clearance [2]: 1.85 mL/min/kg; bioavailability [2]: 99.2%; AUC [2]: 28.6 µM·h; half-life [2]: 7.62 h
0.00308	0.0074	0.067	CC(=O)Nc1cccc(-c2c(C)[nH]c(=O)c3c(Nc4ccc(I)cc4F)c(C)c(=O)oc23)c1 [WX049]	–

From patent US11021486B2, “Coumarin-like cyclic compound as MEK inhibitor and use thereof” (CSTONE PHARMACEUTICALS, priority 2017, dated 2021)
